According to US10533015B1, “Opioid receptor antagonist prodrugs” (Nirsum Laboratories, Inc., priority 2019, dated 2020):
Read-outs that look alike come from different tables or passages of the source.

Legend:
[1] = Plasma stability assay, rat plasma; assay type: in vitro ADME; conditions: 10 μM, 37° C.
Procedure: Plasma stability determination of the test compounds in rat, dog, cynomolgus monkey and human plasma is performed using HPLC-MS. For rat, incubations are carried out in 96-well polypropylene plates in 5 aliquots of 70 μL each (one for each time point). […] Five time points are analyzed (0, 15, 120, 480 and 1440 min). For dog, monkey and human, test compounds (2 μM, final solvent concentration 1%) were also incubated at 37° C. and analyzed at five time points (0, 10, 30, 60 and 120 min). All incubations are performed in duplicates. The samples are analyzed by HPLC-MS. The percentage of parent compound remaining after incubation in plasma is determined.

[2] = for Equilibrium solubility (mg/mL) Water: temperatures N/A
[3] = Polymorph screening of solid state drug substances; conditions: for Dry method and appearance: after stirring 50 °C 72 hours, dried solid; for XRPD results (Dried): dried solid after 50 °C 72 hours; for Visual observation 50° C. / Visual observation RT: target conc. 100 mg/ml
[4] = heating temp. 40 °C, obs. temp. 40 °C
[5] = heating temp. 60 °C, obs. temp. 25 °C
[6] = heating temp. 60 °C, obs. temp. 40 °C

## CCCCCCCCCCCCOC(=O)Oc1ccc2c3c1O[C@H]1C(=O)CC[C@@]4(O)C(C2)N(CC2CC2)CC[C@]314 [Compound 11, (4aS,7aR,12bS)-3-(cyclopropylmethyl)-4a-hydroxy-7-oxo-2,3,4,4a,5,6,7,7a-octahydro-1H-4,12-methanobenzofuro[3,2-e]isoquinolin-9-yl dodecyl carbonate]
[1]; 0 min
  % remaining at time point: 100%
[1]; 15 min
  % remaining at time point: 0.7%
[1]; 120 min
  % remaining at time point: 0.3%
[1]; 480 min
  % remaining at time point: 0.2%
[1]; 1440 min
  % remaining at time point: 0%
[2]; [4]
  Approximate Solubility (mg/mL) in Excipient: Cottonseed oil: >407 mg/mL
  Approximate Solubility (mg/mL) in Excipient: Ethanol: >218 mg/mL
  Approximate Solubility (mg/mL) in Excipient: Sesame oil: >407 mg/mL
[2]; [5]
  Approximate Solubility (mg/mL) in Excipient: Cottonseed oil: <51 mg/mL
  Approximate Solubility (mg/mL) in Excipient: Sesame oil: <50 mg/mL
[3]; Acetone
  Dry method and appearance: Evaporation/white powder
  XRPD results (Dried): Pattern A
  Visual observation 50° C.: Clear
  Visual observation RT: Slurry
[3]; EtOAc
  Dry method and appearance: Evaporation/white powder
  XRPD results (Dried): Pattern A
  Visual observation 50° C.: Clear
  Visual observation RT: Slurry
[3]; Heptane
  Dry method and appearance: Evaporation/white powder
  XRPD results (Dried): Pattern B
  Visual observation 50° C.: Clear
  Visual observation RT: Clear
[3]; Isopropanol
  Dry method and appearance: Evaporation/white powder
  XRPD results (Dried): Pattern A
  Visual observation 50° C.: Clear
  Visual observation RT: Slurry
[3]; MTBE
  Dry method and appearance: Evaporation/white powder
  XRPD results (Dried): Pattern A
  Visual observation 50° C.: Clear
  Visual observation RT: Clear

## C=C1CC[C@@]2(O)C3Cc4ccc(OC(=O)CCCCCCCCCCCCCCCCCCCCC)c5c4[C@@]2(CCN3CC2CC2)[C@H]1O5 [Compound 14, (4aS,7aS,12bS)-3-(cyclopropylmethyl)-4a-hydroxy-7-methylene-2,3,4,4a,5,6,7,7a-octahydro-1H-4,12-methanobenzofuro[3,2-e]isoquinolin-9-yl docosanoate]
[1]; 0 min
  % remaining at time point: 100%
[1]; 15 min
  % remaining at time point: 94%
[1]; 120 min
  % remaining at time point: 112%
[1]; 480 min
  % remaining at time point: 107%
[1]; 1440 min
  % remaining at time point: 120%
[2]; [4]
  Approximate Solubility (mg/mL) in Excipient: Cottonseed oil: <50 mg/mL
  Approximate Solubility (mg/mL) in Excipient: Ethanol: 69 to 83 mg/mL
  Approximate Solubility (mg/mL) in Excipient: Sesame oil: <51 mg/mL
[2]; [6]
  Approximate Solubility (mg/mL) in Excipient: Cottonseed oil: <25 mg/mL
  Approximate Solubility (mg/mL) in Excipient: Sesame oil: <25 mg/mL
[2]; compound after slurry in EtOAc
  Equilibrium solubility (mg/mL) Water: <0.0005 mg/mL
[2]; compound after slurry in Heptane
  Equilibrium solubility (mg/mL) Water: <0.0005 mg/mL
[3]; Acetone
  Dry method and appearance: Evaporation/white powder
  XRPD results (Dried): Pattern A
  Visual observation 50° C.: Clear
  Visual observation RT: Slimy
[3]; EtOAc
  Dry method and appearance: Evaporation/white powder
  XRPD results (Dried): Pattern A
  Visual observation 50° C.: Clear
  Visual observation RT: Slurry
[3]; Heptane
  Dry method and appearance: Centrifugation/white powder
  XRPD results (Dried): Pattern B
  Visual observation 50° C.: Slurry
  Visual observation RT: Slurry
[3]; Isopropanol
  Dry method and appearance: Evaporation/white powder
  XRPD results (Dried): Pattern A
  Visual observation 50° C.: Clear
  Visual observation RT: Clear
[3]; MTBE
  Dry method and appearance: Evaporation/white powder
  XRPD results (Dried): Pattern A
  Visual observation 50° C.: Clear
  Visual observation RT: Clear

## C=C1CC[C@@]2(O)C3Cc4ccc(OC(=O)OCCCCCCCCCCCCCCCC)c5c4[C@@]2(CCN3CC2CC2)[C@H]1O5 [Compound 19, (4aS,7aS,12bS)-3-(cyclopropylmethyl)-4a-hydroxy-7-methylene-2,3,4,4a,5,6,7,7a-octahydro-1H-4,12-methanobenzofuro[3,2-e]isoquinolin-9-yl hexadecyl carbonate]
[1]; 0 min
  % remaining at time point: 100%
[1]; 15 min
  % remaining at time point: 70.1%
[1]; 120 min
  % remaining at time point: 71.5%
[1]; 480 min
  % remaining at time point: 43.8%
[1]; 1440 min
  % remaining at time point: 33.3%
[2]; [4]
  Approximate Solubility (mg/mL) in Excipient: Cottonseed oil: 67 to 80 mg/mL
  Approximate Solubility (mg/mL) in Excipient: Ethanol: 27 to 42 mg/mL
  Approximate Solubility (mg/mL) in Excipient: Sesame oil: 103 to 137 mg/mL
[3]; Acetone
  Dry method and appearance: Evaporation/white powder
  XRPD results (Dried): Pattern A
  Visual observation 50° C.: Clear
  Visual observation RT: Slurry
[3]; EtOAc
  Dry method and appearance: Evaporation/white powder
  XRPD results (Dried): Pattern A
  Visual observation 50° C.: Clear
  Visual observation RT: Slurry
[3]; Heptane
  Dry method and appearance: Evaporation/white powder
  XRPD results (Dried): Pattern A
  Visual observation 50° C.: Clear
  Visual observation RT: Slurry
[3]; Isopropanol
  Dry method and appearance: Evaporation/white powder
  XRPD results (Dried): Pattern A
  Visual observation 50° C.: Clear
  Visual observation RT: Slurry
[3]; MTBE
  Dry method and appearance: Evaporation/white powder
  XRPD results (Dried): Pattern A
  Visual observation 50° C.: Clear
  Visual observation RT: Clear

## CCCCCCCCCCCCCCCCOC(=O)Oc1ccc2c3c1O[C@H]1C(=O)CC[C@@]4(O)C(C2)N(CC2CC2)CC[C@]314 [Compound 21, (4aS,7aR,12bS)-3-(cyclopropylmethyl)-4a-hydroxy-7-oxo-2,3,4,4a,5,6,7,7a-octahydro-1H-4,12-methanobenzofuro[3,2-e]isoquinolin-9-yl hexadecyl carbonate]
[1]; 0 min
  % remaining at time point: 100%
[1]; 15 min
  % remaining at time point: 73.5%
[1]; 120 min
  % remaining at time point: 68.3%
[1]; 480 min
  % remaining at time point: 59.8%
[1]; 1440 min
  % remaining at time point: 40.9%
[2]; [6]
  Approximate Solubility (mg/mL) in Excipient: Cottonseed oil: 101 to 134.8 mg/mL
  Approximate Solubility (mg/mL) in Excipient: Ethanol: 50 to 100 mg/mL
  Approximate Solubility (mg/mL) in Excipient: Sesame oil: 101 to 134.5 mg/mL
[3]; Acetone
  Dry method and appearance: Evaporation/white powder
  XRPD results (Dried): Pattern A
  Visual observation 50° C.: Clear
  Visual observation RT: Slurry
[3]; EtOAc
  Dry method and appearance: Evaporation/white powder
  XRPD results (Dried): Pattern A
  Visual observation 50° C.: Clear
  Visual observation RT: Slurry
[3]; Heptane
  Dry method and appearance: Evaporation/white powder
  XRPD results (Dried): Pattern A
  Visual observation 50° C.: Clear
  Visual observation RT: Slurry
[3]; Isopropanol
  Dry method and appearance: Evaporation/white powder
  XRPD results (Dried): Pattern A
  Visual observation 50° C.: Clear
  Visual observation RT: Slurry
[3]; MTBE
  Dry method and appearance: Evaporation/white powder
  XRPD results (Dried): Pattern A
  Visual observation 50° C.: Clear
  Visual observation RT: Clear
